Experiments:
Assay type in all cases: cell-based, human
normal WI38 cells = assay: Cytokine and deacetylase inhibitor treatment, normal cells; conditions: for effect on / killing of normal WI38 cells: TSA, CBHA 2.5 μg/ml; for cell death in normal cells: in combination with cytokine treatment (TSA 400 nM; SAHA 5 μg/ml)
Procedure: (§1) Human cells WI38 (ATCC number CCL-75), WI38 VA13 (ECACC number 85062512), SaOS2 (ECACC number 89050205), U20S (ATCC number HTB-96), HeLa (CCL-2), HEK 293 (ATCC number CRL-1573) and Hs68 (ATCC number CRL-1635) were obtained from ATCC, ECACC or CR-UK cell services. All cells were cultured as monolayers in 10% foetal bovine serum in Dulbecco's minimal essential medium at 37° C. in 5% CO2, except SaOS2 cells which were cultured in McCoy's 5a medium supplemented with 1.5 mM L-glutamine and 15% foetal bovine serum. VA13 cells are WI38 primary fibroblasts transformed with SV40 virus and therefore share the same genetic background. To measure cell viability and total cell number, cells in suspension and adherent cells were collated and analysed by resuspending with a known concentration of CaliBRITE unlabelled beads (Becton Dickinson) plus propidium iodide and counting the number of live and dead cells per 3000 beads using a FACSCalibur flow cytometer (Becton Dickinson). Alternatively, an automated trypan blue assay using a Vi-Cell XR Cell Viability Analyzer (Beckman Coulter) was employed. Cells were treated with Interleukin 6 (20 ng/ml) for 24 hours, followed by addition of antibody 80M2 (1 μg/ml), which modulates TNFα receptor 2, and TNFα (10 ng/ml). TNFα was added to the cell culture medium 30 minutes after addition of 80M2. […] All agents were added to the cell culture medium in liquid form. […] For cytokine treatment in combination with deacetylase inhibitors, cells were harvested and counted 48 hours after addition of deacetylase inhibitor.

[1] = test system: transformed WI38 VA13 cells; assay: Cytokine and deacetylase inhibitor treatment, transformed cells; conditions: for efficacy in (selective) cell killing of transformed cells: alone and in combination with cytokine treatment, butyric acid 5 mM, TSA, CBHA 2.5 μg/ml, SAHA 5 μg/ml
Procedure: as §1

MCM3AP = assay: Western blot of MCM3AP expression after cytokine treatment; conditions: HEK 293 cells; IL6 20 ng/ml, 24 hours later TNFα 10 ng/ml and 80M2 1 μg/ml; following three days
Procedure: HEK 293 cells (ATCC number CRL-1573) and Hs68 cells (ATCC number CRL-1635) were cultured as monolayers in 10% foetal calf serum in Dulbecco's minimal essential medium at 37° C. in 10% or 5% CO2 respectively, according to recommendations by the American Tissue Culture Collection. Stable cell lines of HEK 293 cells expressing inducible wild-type or mutant MCM3AP were made by stable transfection of vectors previously described by Takei et al. (2,3). Expression of MCM3AP was induced in these stable cell lines by treatment with doxycycline.
Exponentially growing cells were harvested and fractionated into soluble and structure-bound fractions. Cells were harvested by scraping adherent cells, pelleted by centrifugation at 200 g for 4 minutes and washed in cold PBS. The cell pellet was resuspended in cold hypotonic buffer (10 mM HEPES-KOH pH 7.3, 5 mM KCl, 1.5 mM MgCl2, 1 mM DTT, 1% NP40 and protease inhibitors) and incubated on ice for 15 minutes. Cells were centrifuged at 10,000 rpm for 5 minutes and the supernatant stored at −80° C. as the soluble protein fraction. […]
Samples were separated by 7.5% SDS-PAGE and transferred to PVDF membrane at a constant voltage of 10V for 1 hour. […] The bound antibodies were detected with peroxidase-conjugated secondary antibody (Amersham Biosciences) and protein bands visualised by the […] method using ECL or ECLplus (Amersham Biosciences). […]

HEK 293 cells = assay: Apoptosis (annexin V) and attached cell number after cytokine treatment; conditions: HEK 293 attached cells; 24 hours after addition of TNFα and 80M2
Procedure: Cells were treated with Interleukin 6 (20 ng/ml) for 24 hours, followed by addition of antibody 80M2 (1 μg/ml), which modulates TNFα receptor 2, and TNFα (10 ng/ml). TNFα was added to the cell culture medium 30 minutes after addition of 80M2. All agents were added to the cell culture medium in liquid form. Cells were harvested after the indicated number of days of treatment, where ‘time zero’ corresponds to the point of addition of Interleukin 6.
Cells were assayed for apoptosis by Annexin V staining (Oncogene, Annexin V-FITC or Annexin V-Biotin apoptosis detection kit) and TUNEL assay (BD Biosciences, ApoAlert DNA fragmentation assay kit). Cells were assayed for Annexin V and TUNEL assay by flow cytometry, according to manufacturer's instructions. Attached cells were harvested and counted using a haemocytometer to give total attached cell number.
We examined the cell fate outcome of upregulating MCM3AP by cytokine treatment in HEK 293 cells. Treatment of HEK 293 cells with the same combination of cytokines that upregulates MCM3AP induces cell death by apoptosis (FIG. 4). Cells were treated with IL6 for 24 hours, followed by addition of TNFα and antibody 80M2. Attached cells were assayed for apoptosis and total cell number 24 hours and 36 hours later respectively.

| Molecule | effect on / killing of normal WI38 cells (normal WI38 cells) | cell death in normal cells (normal WI38 cells) | efficacy in (selective) cell killing of transformed cells [1] | MCM3AP protein expression (western blot) (MCM3AP) | other results |
| --- | --- | --- | --- | --- | --- |
| O=C(/C=C/c1cccc(C(=O)NO)c1)NO [CBHA, cinnamic acid bishydroxamic acid] | did not kill primary WI38 cells above background levels | – | – | – | – |
| O=C(CCCCCCC(=O)Nc1ccccc1)NO [SAHA, suberoylanilide hydroxamic acid] | – | ~40% | – | – | – |
| CC(/C=C/C(=O)NO)=C\[C@@H](C)C(=O)c1ccc(N(C)C)cc1 [TSA, trichostatin A] | minimal effect | ~20% | efficient in selectively killing transformed cells | – | effect of TSA at lower concentrations ([1]; 100 nM, 200 nM, 400 nM TSA): concentration dependent; transformed cells killed ([1]; three days of cytokine treatment in combination with deacetylase inhibitor (TSA 400 nM; CBHA 2.5 μg/ml; SAHA 5 μg/ml)): 80-90%; live cell number over time (normal WI38 cells; 400 nM TSA in combination with cytokine treatment, compare with t=0 value): reduction in live cell number |
| CCCC(=O)O [butyric acid] | – | – | least effective | – | – |
| IL6: cytokine interleukin-6 | – | – | – | does not stimulate MCM3AP significantly | – |
| TNFα | – | – | – | does not stimulate MCM3AP significantly | apoptosis (annexin-V staining) (HEK 293 cells): markedly reduced |

— US20070207120A1, “Selective Killing Of Cancer Cells By Induction Of Acetyltransferase Via Tnf-Alpha And Il-6” (priority 2004, published 2007)
